In test [1] the test system is Hennes-20 cells. As to the kind of experiment: Hennes-20 oncology screen. The test is classed as cell-based. To be noted: 72 h, alamar Blue. In outline:
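Cells seeded at 500 and 15,000 per well in minimum essential medium, dosed with a compound titration after 24 h, then incubated 72 h at 37 °C. Alamar Blue added and incubated a further 72 h, read at 530/590. Lower signal only at low density indicates proliferation arrest; lower signal at both densities indicates toxicity.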
For orientation: Alamar Blue is a resazurin reagent that responds to reducing activity.

Test [2] relates to different species of gram-positive bacteria. Nature of the test: MIC assay, summary over gram-positive species. The following applies: exception E. faecalis.

Consider `CC1(C)C2CN(c3ccc4nc5ccc(N6CC7C(C6)C7(C)C)cc5[s+]c4c3)CC21` (centres unmarked) [Compound 1, 3,7-Di(6,6-dimethyl-3-azabicyclo[3.1.0]hexan-N-yl)phenothiazinium iodide], for which, in test [1], the midpoint of the response, the EC50, lay at 500 nM. The molecule further gave an MIC range in test [2] of 0.25 to 0.5 µg/mL.

The record behind these values is patent publication US20240300940A1, “Phenothiazinyl Compounds and Uses” (Prosetta Biosciences, Inc., priority 2023, published 2024).
